From ChEMBL document CHEMBL1126467, “Discovery of dual activity molecules with thromboxane antagonist and thromboxane synthase inhibitory activity” (Bioorg Med Chem Lett, 1992)
pIC50: −log10 of the molar value.

Legend:
Thromboxane A2 receptor = target: T1, Thromboxane A2 receptor (Homo sapiens, UniProt P21731); experiment: Tested for thromboxane antagonist potency (pA2) against […] induced platelet aggregation using human platelet rich plasma; format: functional, cell-free; conditions: read-out: pA2 (converted)
T1 sequence (P21731 whole entry): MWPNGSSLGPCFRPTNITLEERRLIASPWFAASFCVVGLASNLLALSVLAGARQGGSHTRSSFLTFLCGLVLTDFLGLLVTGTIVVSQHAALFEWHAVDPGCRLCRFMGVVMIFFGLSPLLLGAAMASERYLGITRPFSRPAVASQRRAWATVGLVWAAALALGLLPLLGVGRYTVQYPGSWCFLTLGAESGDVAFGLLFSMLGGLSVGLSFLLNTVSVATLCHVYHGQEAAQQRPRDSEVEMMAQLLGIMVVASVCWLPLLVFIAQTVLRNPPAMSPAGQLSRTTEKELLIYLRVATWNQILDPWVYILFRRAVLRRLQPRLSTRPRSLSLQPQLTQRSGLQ

Thromboxane-A synthase [1] = target: T2, Thromboxane-A synthase (Homo sapiens, UniProt P24557); experiment: Human microsomal Thromboxane synthase inhibition was determined by inhibiting TXB2 formation from [14C]- labelled arachidonic acid
T2 sequence (P24557 whole entry): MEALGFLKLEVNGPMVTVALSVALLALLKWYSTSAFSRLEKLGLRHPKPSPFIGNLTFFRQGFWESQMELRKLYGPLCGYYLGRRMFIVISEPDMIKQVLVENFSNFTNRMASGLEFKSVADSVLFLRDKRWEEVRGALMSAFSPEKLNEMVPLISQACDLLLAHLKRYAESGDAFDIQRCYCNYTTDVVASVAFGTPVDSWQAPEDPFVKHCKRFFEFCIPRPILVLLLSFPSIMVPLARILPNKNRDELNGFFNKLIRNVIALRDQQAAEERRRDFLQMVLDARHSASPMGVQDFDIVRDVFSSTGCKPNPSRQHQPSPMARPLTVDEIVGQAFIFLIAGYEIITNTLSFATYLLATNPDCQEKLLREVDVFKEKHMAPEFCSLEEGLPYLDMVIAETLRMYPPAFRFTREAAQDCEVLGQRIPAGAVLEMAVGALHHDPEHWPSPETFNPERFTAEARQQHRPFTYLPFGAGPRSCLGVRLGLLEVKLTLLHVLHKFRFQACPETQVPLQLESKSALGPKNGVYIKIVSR

Thromboxane-A synthase [2] = target: T2, Thromboxane-A synthase; experiment: Human microsomal Thromboxane synthase inhibition was determined by inhibiting TXB2 formation from [14C]- labelled arachidonic acid; Not active
[3] = target: T3, Thromboxane A2 receptor (Rattus norvegicus) (UniProt P34978); experiment: Compound was tested for in vivo inhibition of thromboxane A2 receptor inhibition 1 hr after administration of 10 mg/kg orally to rat; format: organism-based; design: dose 10 mg/kg; conditions: at 10 mg/kg
T3 sequence (whole entry): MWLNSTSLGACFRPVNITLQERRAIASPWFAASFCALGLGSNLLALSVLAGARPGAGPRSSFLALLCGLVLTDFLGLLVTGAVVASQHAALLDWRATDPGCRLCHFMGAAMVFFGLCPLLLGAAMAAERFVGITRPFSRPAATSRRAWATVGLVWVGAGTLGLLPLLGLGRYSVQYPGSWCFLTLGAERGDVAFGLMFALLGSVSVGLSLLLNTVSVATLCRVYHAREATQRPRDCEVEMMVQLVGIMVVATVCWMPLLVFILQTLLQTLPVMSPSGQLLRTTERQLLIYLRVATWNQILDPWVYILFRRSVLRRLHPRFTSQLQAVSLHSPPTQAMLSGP

[4] = target: T3, Thromboxane A2 receptor (Rattus norvegicus); experiment: Compound was tested for in vivo inhibition of thromboxane-A2 receptor inhibition 5 hr after administration of 10 mg/kg orally to rat; format: organism-based; design: dose 10 mg/kg; conditions: at 10 mg/kg
[5] = target: T3, Thromboxane A2 receptor (Rattus norvegicus); experiment: Compound was tested for in vivo inhibition of thromboxane-A2 receptor inhibition 3 hr after administration of 10 mg/kg orally to rat; format: organism-based; design: dose 10 mg/kg; conditions: at 10 mg/kg

Row | Compound | Kb (Thromboxane A2 receptor) [nM] | pIC50 (Thromboxane-A synthase [1]) | IC50 (Thromboxane-A synthase [2]) | inhibition [3] [%] | inhibition [4] [%] | inhibition [5] [%]
1 | O=C(O)CC1CCCc2c1n(Cc1ccc(OCCCC#Cc3cccnc3)cc1)c1ccc(F)cc21 (stereo not drawn) | 158 | 6.22 |  |  |  | 
2 | O=C(O)CC1CCCc2c1n(Cc1cccc(CCCCCc3cccnc3)c1)c1ccc(F)cc21 (stereo not drawn) | 3980 | 6.30 |  |  |  | 
3 | O=C(O)CC1CCCc2c1n(Cc1cccnc1)c1ccc(F)cc21 (stereo not drawn) | 3160 |  | Not Active |  |  | 
4 | O=C(O)CC1CCCc2c1n(Cc1ccc(Cl)cc1)c1ccc(F)cc21 (stereo not drawn) | 79.4 |  | Not Active |  |  | 
5 | O=C(O)CC1CCCc2c1n(Cc1ccc(OCCCCC#Cc3cccnc3)cc1)c1ccc(F)cc21 (stereo not drawn) | 200 | 6.40 |  |  |  | 

More lines, in order of rising pIC50 (Thromboxane-A synthase [1]), values ahead:

Row | Kb (Thromboxane A2 receptor) [nM] | pIC50 (Thromboxane-A synthase [1]) | IC50 (Thromboxane-A synthase [2]) | inhibition [3] [%] | inhibition [4] [%] | inhibition [5] [%] | Compound
6 | 3160 | 6.52 |  |  |  |  | O=C(O)CC1CCCc2c1n(Cc1cccc(OCCCCCc3cccnc3)c1)c1ccc(F)cc21 (stereo not drawn)
7 | 631 | 6.70 |  |  |  |  | O=C(O)CC1CCCc2c1n(Cc1cccc(OCCC/C=C\c3cccnc3)c1)c1ccc(F)cc21 (stereo not drawn)
8 | 501 | 7.00 |  |  |  |  | O=C(O)CC1CCCc2c1n(Cc1cccc(OCCCCc3cccnc3)c1)c1ccc(F)cc21 (stereo not drawn)
9 | 1000 | 7.30 |  | 86 | 71 | 77 | O=C(O)CC1CCCc2c1n(Cc1cccc(OCCCC#Cc3cccnc3)c1)c1ccc(F)cc21 (stereo not drawn)
10 | 2510 | 7.40 |  |  |  |  | O=C(O)CC1CCCc2c1n(Cc1cccc(OCCCCC#Cc3cccnc3)c1)c1ccc(F)cc21 (stereo not drawn)
